These results are taken from ChEMBL document CHEMBL1201862, “PubChem BioAssay data set” (2004).

Some test systems named below: HCT-116; HCT-15; SF-268; SF-539; NCI-H23; COLO 205; IGROV-1; A498; NCI/ADR-RES; SR; OVCAR-4; MOLT-4; 786-0; UACC-257; SNB-19; HCC 2998; K562; NCI-H522; RPMI-8226; HL-60.
Common to all, as to experiment: growth of human tumour cells (NCI), 48 h

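Protocol summary: plate cells (96-well), add compound at 5 concentrations, incubate 48 h, interpolate endpoints linearly. GI50 marks 50% less growth.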 Active and inactive are the calls of the source. Cut-off read from the data, not from the text of the source: active = GI50 up to about 1.1 µM and inactive = higher.

On to `CC(C)N1CCCOC(c2ccc([N+](=O)[O-])cc2)O1` (stereo not drawn), for which the GI50 in the assay on HCT-116 was > 100 µM (inactive); in the assay with HCT-15, over 100 µM; with SF-268, > 100 µM (inactive); with SF-539 it was > 100 µM (inactive); in the assay with NCI-H23, > 100 µM (inactive); with COLO 205 it was > 100 µM (inactive). In addition, the GI50 with IGROV-1, in the assay on A498, with NCI/ADR-RES, in the assay with SR, in the assay with OVCAR-4 and in the assay with MOLT-4 was > 100 µM (inactive) each time. Further, the GI50 in the assay on 786-0 is > 100 µM (inactive); in the assay with UACC-257, > 100 µM (inactive); in the assay on SNB-19, > 10 µM (inactive); in the assay on HCC 2998, > 100 µM (inactive); in the assay with K562, > 100 µM (inactive); in the assay with NCI-H522, > 100 µM (inactive).

For `CCOC(=O)c1cn(CC)c2ccc3ccsc3c2c1=O`, the GI50 with RPMI-8226 is > 100 µM (inactive); in the assay on HCT-116 it was > 100 µM (inactive); in the assay with HCT-15 it was over 100 µM; in the assay on HL-60, > 100 µM (inactive); with SF-268, > 100 µM (inactive); in the assay with SF-539, > 100 µM (inactive). Besides, the GI50 with NCI-H23, in the assay on COLO 205, in the assay with IGROV-1, with A498, in the assay with NCI/ADR-RES and with OVCAR-4 was > 100 µM (inactive) in each case. In addition, the GI50 with MOLT-4, in the assay with 786-0, in the assay on UACC-257, in the assay with SNB-19, in the assay on HCC 2998 and with K562 was > 100 µM (inactive) throughout. The GI50 in the assay on NCI-H522 is > 100 µM (inactive).

On to `O=C(c1ccccc1)c1ccc2[nH]c(-c3c(Cl)c(Cl)c(Cl)c(Cl)c3C(=O)N/N=C\C=C\c3ccccc3)nc2c1`, for which the GI50 with RPMI-8226 is 17.5 µM (inactive); in the assay on HCT-116 it was 58.6 µM (inactive); in the assay with HCT-15, 32.5 µM; in the assay with HL-60, 37.8 µM (inactive); in the assay with SF-268 it was 38.6 µM (inactive); with SF-539, 61 µM (inactive). For the same compound, the GI50 in the assay on NCI-H23 was 59.3 µM (inactive); in the assay on COLO 205, 30.5 µM (inactive); in the assay on IGROV-1 it was 34.4 µM (inactive); in the assay on NCI/ADR-RES, > 100 µM (inactive); in the assay with SR, 23.3 µM (inactive); in the assay on OVCAR-4, 26.1 µM (inactive). For the same compound, the GI50 in the assay with MOLT-4 is 17.7 µM (inactive); in the assay with 786-0, 35.8 µM (inactive); with UACC-257, 83.9 µM (inactive); with SNB-19, 66.2 µM (inactive); in the assay on K562 it was 19.4 µM (inactive); in the assay with NCI-H522 it was 26.9 µM (inactive).

Consider `COC(=O)/C=C/COCC1C2CCC(=O)C21` (stereo not drawn), for which the GI50 with RPMI-8226 was > 100 µM (inactive); with HCT-116, > 100 µM (inactive); in the assay on HCT-15 it was over 100 µM; in the assay on SF-268, > 100 µM (inactive); in the assay with SF-539, > 100 µM (inactive); in the assay with NCI-H23 it was > 100 µM (inactive). Also, the GI50 in the assay on COLO 205, in the assay on IGROV-1, in the assay with NCI/ADR-RES, with SR, with OVCAR-4 and in the assay on MOLT-4 was > 100 µM (inactive) in each case. In addition, the GI50 in the assay on 786-0, in the assay on UACC-257, with SNB-19, with HCC 2998, in the assay with K562 and in the assay on NCI-H522 was > 100 µM (inactive) throughout.

On to `Cc1cn(CC2=NCC(C)N2)c(=O)[nH]c1=O` (stereo not drawn), for which the GI50 with RPMI-8226 is > 100 µM (inactive); with HCT-116 it was > 100 µM (inactive); in the assay on HCT-15, over 100 µM; with SF-268, > 100 µM (inactive); with NCI-H23 it was > 100 µM (inactive); in the assay with COLO 205, > 100 µM (inactive). For the same compound, the GI50 in the assay with IGROV-1, in the assay on A498, in the assay on NCI/ADR-RES, with SR, in the assay with MOLT-4 and in the assay on 786-0 was > 100 µM (inactive) throughout. In addition, the GI50 in the assay with UACC-257, with SNB-19, with HCC 2998, with K562 and with NCI-H522 was > 100 µM (inactive) throughout.

Turning to `O=C1NC(c2ccccc2)N=C2Oc3ccccc3C=C12` (stereo not drawn), the GI50 with RPMI-8226 was 19.3 µM (inactive); in the assay on HCT-116 it was 0.263 µM (active); with HCT-15, 0.153 µM; in the assay on HL-60, 0.212 µM (active); with SF-268, 5.98 µM (inactive); with SF-539, 2.6 µM (inactive). The GI50 in the assay on NCI-H23 is 0.151 µM (active); with COLO 205, 0.0731 µM (active); with IGROV-1, 0.535 µM (active); with A498, 1.27 µM (inactive); with NCI/ADR-RES it was 0.533 µM (active); in the assay with OVCAR-4 it was > 100 µM (inactive). The GI50 in the assay with MOLT-4 was 1.69 µM (inactive); in the assay with 786-0, 0.281 µM (active); in the assay on UACC-257 it was 0.065 µM (active); in the assay on SNB-19 it was 4.61 µM (inactive); in the assay with HCC 2998, 0.0277 µM (active); in the assay on K562 it was 1.28 µM (inactive). The GI50 with NCI-H522 was 0.622 µM (active).

On to `NCC1CCN(c2nc3ccccc3c3c2CCCC3)CC1`, for which the GI50 in the assay on RPMI-8226 is 2.31 µM (inactive); in the assay with HCT-116, 3.07 µM (inactive); with HCT-15 it was 4.16 µM; in the assay on HL-60, 2.84 µM (inactive); with SF-268, 2.78 µM (inactive); with SF-539 it was 4.65 µM (inactive). Moreover, the GI50 in the assay on NCI-H23 is 15.5 µM (inactive); with COLO 205, 1.61 µM (inactive); in the assay with IGROV-1, 8.85 µM (inactive); in the assay with A498 it was 12.4 µM (inactive); with NCI/ADR-RES, 12.9 µM (inactive); in the assay on OVCAR-4, 10.5 µM (inactive). Further, the GI50 in the assay on MOLT-4 is 3.59 µM (inactive); in the assay on 786-0, 4.23 µM (inactive); in the assay on UACC-257, 2.68 µM (inactive); in the assay with SNB-19, 10.4 µM (inactive); with HCC 2998 it was 1.9 µM (inactive); in the assay with K562, 2.54 µM (inactive). For the same compound, the GI50 with NCI-H522 was 6.22 µM (inactive).

For `CC12c3c4cccc3Oc3cc(N)cc(c31)Oc1cc(N)cc(c12)O4`, the GI50 was 5.93 µM (inactive) in the assay with RPMI-8226; 3.14 µM (inactive) in the assay on HCT-116; 4.14 µM in the assay on HCT-15; 4.31 µM (inactive) in the assay with SF-268; 2.96 µM (inactive) with SF-539; 8.43 µM (inactive) in the assay with NCI-H23. The GI50 was 3.29 µM (inactive) in the assay with COLO 205; 3.44 µM (inactive) in the assay on IGROV-1; 2.74 µM (inactive) in the assay on A498; 0.953 µM (active) in the assay with NCI/ADR-RES; 6.22 µM (inactive) with SR; 10.4 µM (inactive) in the assay on OVCAR-4. Also, the GI50 is 5.13 µM (inactive) with MOLT-4; 2.56 µM (inactive) in the assay on 786-0; 5.71 µM (inactive) in the assay on UACC-257; 7.14 µM (inactive) with SNB-19; 4.61 µM (inactive) in the assay with HCC 2998; 4.18 µM (inactive) in the assay with K562. Besides, the GI50 in the assay on NCI-H522 is 2.24 µM (inactive).

On to `CC(=O)N1C(=O)/C(=C\C(=O)c2ccc([N+](=O)[O-])cc2)c2ccccc21`, for which the GI50 is 18 µM (inactive) in the assay on HCT-116; 15 µM with HCT-15; 22.6 µM (inactive) with SF-268; 14.4 µM (inactive) in the assay with SF-539; 28.9 µM (inactive) in the assay on NCI-H23; 18.8 µM (inactive) with COLO 205. The GI50 was 21.4 µM (inactive) in the assay on IGROV-1; > 100 µM (inactive) with A498; 44.4 µM (inactive) in the assay with NCI/ADR-RES; 3.61 µM (inactive) in the assay with SR; 14.4 µM (inactive) in the assay on OVCAR-4; 19.5 µM (inactive) in the assay with MOLT-4. The GI50 is 15.5 µM (inactive) with 786-0; 19 µM (inactive) in the assay on UACC-257; 43.2 µM (inactive) in the assay on SNB-19; 19.3 µM (inactive) in the assay on HCC 2998; 9.18 µM (inactive) in the assay with K562; 15.7 µM (inactive) in the assay on NCI-H522.

With `O=C(O)CNC(=O)C(CSC(=O)OCC1c2ccccc2-c2ccccc21)NC(=O)CCC(NC(=O)OCC1c2ccccc2-c2ccccc21)C(=O)O` (stereo not drawn), the GI50 in the assay with RPMI-8226 was 21.5 µM (inactive); in the assay on HCT-116 it was 18 µM (inactive); with HCT-15 it was 20 µM; with HL-60 it was 28.8 µM (inactive); with SF-268 it was 17.5 µM (inactive); with SF-539, 16.3 µM (inactive). The GI50 was 27 µM (inactive) in the assay on NCI-H23; 16.5 µM (inactive) in the assay on COLO 205; 13.1 µM (inactive) with IGROV-1; 17.5 µM (inactive) in the assay on NCI/ADR-RES; 3.49 µM (inactive) with SR; 15 µM (inactive) in the assay with OVCAR-4. In addition, the GI50 in the assay with MOLT-4 is 20.1 µM (inactive); in the assay on 786-0, 3.05 µM (inactive); in the assay on UACC-257, > 100 µM (inactive); with SNB-19, > 100 µM (inactive); in the assay with HCC 2998, > 100 µM (inactive); in the assay on K562, 17.1 µM (inactive). Moreover, the GI50 in the assay on NCI-H522 is 1.57 µM (inactive).

For `Cc1ccc(C(=O)/C=C2\Nc3ccccc3S\C2=N\CS(=O)(=O)c2ccc(C)cc2)cc1`, the GI50 in the assay on RPMI-8226 was > 10 µM (inactive); in the assay on HCT-116, > 10 µM (inactive); in the assay with HCT-15, over 10 µM; in the assay with HL-60, 7.41 µM (inactive); in the assay with SF-268 it was > 10 µM (inactive); in the assay with SF-539, > 10 µM (inactive). The GI50 in the assay on NCI-H23 was > 10 µM (inactive); with COLO 205 it was > 10 µM (inactive); in the assay with IGROV-1, > 10 µM (inactive); in the assay with NCI/ADR-RES, > 10 µM (inactive); in the assay on SR, > 10 µM (inactive); in the assay on OVCAR-4, 4.02 µM (inactive). For the same compound, the GI50 with MOLT-4, with 786-0, in the assay with UACC-257, in the assay with SNB-19, with HCC 2998 and in the assay on K562 was > 10 µM (inactive) throughout. Further, the GI50 in the assay with NCI-H522 was 5.38 µM (inactive).
